A short description of the data set: pKa assay (spectrophotometric). The data set is classed as physicochemical. As to conditions: potassium phosphate buffer series with methanol, 23 °C. As for the experimental part: Potassium dihydrogen phosphate, potassium hydroxide and methanol (POCH) were used to prepare the buffer solution, as described previously. […]. The pH was measured in 23 °C by using a Mettler Toledo FiveEasy pH metre with a LE438 Lab pH electrode (Mettler Toledo). Our tested compound solution was 5 µM solution in methanol: water (1:1) mix.
Spectrophotometric measurement was performed in a 96-well plate using a Synergy H1 microplate reader (BioTek) with Gen5 software (BioTek). The full assay consisted of 35 UV spectrum measurements, one for each work buffer solution. For the assay, 180 μL sequent work buffer and 20 μL tested compound solution were added to each of 35 wells. For the blank, 200 μL sequent work buffer alone was added to each of 35 wells. The measurement was performed at 23 °C. The spectra were recorded from 280 nm to 380 nm in 1 nm steps. Concentrations were calculated based on the 332/343 nm and 343/332 nm ratio as described previously. The results were compared with computer calculations of pKa value obtained using chemicalize.com online software (ChemAxon 2018) and ACD/Percepta version 14.0.0 (Advanced Chemistry Development, Inc., Metropolitan Toronto, Canada).

Structures are written as SMILES. Read-outs that look alike come from different tables or passages of the source.

Turning to `O=C(NCCCCCCNc1c2c(nc3ccccc13)CCC2)c1cc(Cl)cc(Cl)c1` [Compound 3e], the pKa by setting is: (read-out: pKa1 Experimental) 8.4; (read-out: pKa2 Experimental) 11.3.

The values above are taken from PMC9848259 (Journal of Enzyme Inhibition and Medicinal Chemistry, 2023).
